# Entries after “also recorded” stand apart in the source; their conditions may differ.
# Legend:
# [1] = system: L1210 cells; experiment: 2,4-Dinitrophenyl glutathione (DNP-GS) transport from L1210 cells; assay type: cell-based, mouse; conditions: L1210 cells expressing the protein, compared with control L1210 cells; spectrophotometry
# Description: DNP-GS was generated in L1210 cells by exposure to 1-chloro-2,4-dinitrobenzene and its efflux determined as described previously (Olive et al., (1994) Biochim. Biophys. Acta 1224, 264-268).
# [2] = system: MDCK cells; experiment: Localization of GFP fusion proteins in polarized MDCK cells by confocal microscopy; assay type: cell-based, canine; conditions: GFP fusion protein, confluent MDCK cells on Transwell membranes
# Experimental: The cMOAT-gfp and MRP1-gfp constructs supra (1 μg of DNA per transfection) were separately transfected into MDCK cells and L1210 cells using a UpofectAMINE transfection kit (Life Technologies, Inc.). Transfections of MDCK cells were carried out using Transwell plates (Costar, 24 mm×3 μm polycarbonate membrane) to enable cell polarization. Cells were imaged using a NikonTE300 inverted microscope linked to a Radiance 2000 Laser Scanning System for confocal microscopy and Lasersharp 2000 imaging software (Bio-Rad).
# To conveniently detect the localization of the proteins under investigation, GFP fusion proteins were produced and their localization visualized using confocal microscopy to visualize the fluorescent product, as described supra. […]
# [3] = system: L1210 cells; experiment: [3H]paclitaxel transport from L1210 cells expressing modified MDR3; assay type: cell-based, mouse; conditions: L1210 cells stably expressing the polypeptide without GFP tag, compared to control L1210 cells
# Experimental: The transport of [^3H]paclitaxel is determined from L1210 cells expressing the modified MDR3 polypeptide and compared to the efflux of [^3H]paclitaxel from control L1210 cells not ectopically expressing any MDR3 polypeptide.
# [4] = system: L1210 cells; experiment: Survival of L1210 cells in the presence of Busulfan; assay type: cell-based, mouse; conditions: versus non-transfected L1210 cells or L1210 cells expressing native cMOAT
# Experimental: Accordingly, the ability of modified cMOAT polypeptides to confer resistance to Busulfan was determined in L1210 cells. In particular, the ΔcMOAT polypeptide having the amino acid sequence set forth in SEQ ID NO: 4, was expressed in L1210 cells as described in Example 1. The transfected cells were exposed to a range of concentrations of Busulfan. The survival of wild type L1210 cells, and transfected L1210 cells expressing either native cMOAT or ΔcMOAT, was determined in the presence of Busulfan. Survival was also assessed relative to the growth of cells that had not been exposed to Busulfan. Cell growth and survival were assayed using standard procedures (Denizot et al (1986), J. Immunol. Methods 89, 271-277).
# [5] = system: L1210 cells; experiment: 6-mercaptopurine transport (6-thio-IMP efflux) from L1210 cells expressing modified MRP4; assay type: cell-based, mouse; conditions: L1210 cells stably expressing the polypeptide without GFP tag, compared to control L1210 cells or L1210 cells expressing native MRP4
# Experimental: Radiolabeled 6-mercaptopurine is added to L1210 cells expressing the modified MRP4 polypeptide and the efflux of 6-thio-IMP compared to the efflux of 6-thio-IMP from L1210 cells expressing native MRP4, or alternatively, the efflux of 6-thio-IMP from control L1210 cells not ectopically expressing any MRP4 polypeptide.
molecule,measurement,setting,value
cMOAT: native human canalicular multispecific organic anion transporter (MRP2) [reference compound],efflux of DNP-GS into the supernatant,[1],little evidence for the transport of DNP-GS; also recorded: minimal; also recorded: same rate of efflux
"S1542A: modified cMOAT polypeptide with Ser1542 mutated to alanine, tested as cMOAT-gfp fusion",membrane localization in polarized MDCK cells,[2],fluorescence appears to be in sub-membrane vesicles
"F1545A: modified cMOAT polypeptide with Phe1545 mutated to alanine, tested as cMOAT-gfp fusion",membrane localization in polarized MDCK cells,[2],did not exhibit modified localization; also recorded: did not alter normal targeting; also recorded: same localization as the native protein
"T1543A: modified cMOAT polypeptide with Thr1543 mutated to alanine, tested as cMOAT-gfp fusion",membrane localization in polarized MDCK cells,[2],both apical and basolateral targeting with an increase in protein accumulation in intracellular vesicles; also recorded: non-polarized distribution
modified MDR3 polypeptide: modified human MDR3 polypeptide lacking the T-K-F motif (terminal 4 amino acids deleted),efflux of [3H]paclitaxel,[3],significantly higher efflux
"ΔcMOAT: modified human cMOAT polypeptide wherein the C-terminal T-K-F motif was deleted, without a GFP tag",efflux of DNP-GS into the supernatant,[1],"significantly higher efflux; also recorded: transport 2,4-dinitrophenyl glutathione; also recorded: increased transport"
same,resistance to Busulfan conferred on L1210 cells,[4],significantly enhanced resistance to Busulfan
"modified MRP4 polypeptide: modified human MRP4 polypeptide lacking the T-K-F motif (terminal 3 amino acids deleted) (protein, listed as Homo sapiens) MLPVYQEVKPNPLQDANLCSRVFFWWLNPLFKIGHKRRLEEDDMYSVLPEDRSQHLGEELQGFWDKEVLRAENDAQKPSLTRAIIKCYWKSYLVLGIFTLIEESAKVIQPIFLGKIINYFENYDPMDSVALNTAYAYATVLTFCTLILAILHHLYFYHVQCAGMRLRVAMCHMIYRKALRLSNMAMGKTTTGQIVNLLSNDVNKFDQVTVFLHFLWAGPLQAIAVTALLWMEIGISCLAGMAVLIILLPLQSCFGKLFSSLRSKTATFTDARIRTMNEVITGIRIIKMYAWEKSFSNLITNLRKKEISKILRSSCLRGMNLASFFSASKIIVFVTFTTYVLLGSVITASRVFVAVTLYGAVRLTVTLFFPSAIERVSEAIVSIRRIQTFLLLDEISQRNRQLPSDGKKMVHVQDFTAFWDKASETPTLQGLSFTVRPGELLAVVGPVGAGKSSLLSAVLGELAPSHGLVSVHGRIAYVSQQPWVFSGTLRSNILFGKKYEKERYEKVIKACALKKDLQLLEDGDLTVIGDRGTTLSGGQKARVNLARAVYQDADIYLLDDPLSAVDAEVSRHLFELCICQILHEKITILVTHQLQYLKAASQILILKDGKMVQKGTYTEFLKSGIDFGSLLKKDNEESEQPPVPGTPTLRNRTFSESSVWSQQSSRPSLKDGALESQDTENVPVTLSEENRSEGKVGFQAYKNYFRAGAHWIVFIFLILLNTAAQVAYVLQDWWLSYWANKQSMLNVTVNGGGNVTEKLDLNWYLGIYSGLTVATVLFGIARSLLVFYVLVNSSQTLHNKMFESILKAPVLFFDRNPIGRILNRFSKDIGHLDDLLPLTFLDFIQTLLQVVGVVSVAVAVIPWIAIPLVPLGIIFIFLRRYFLETSRDVKRLESTTRSPVFSHLSSSLQGLWTIRAYKAEERCQELFDAHQDLHSEAWFLFLTTSRWFAVRLDAICAMFVIIVAFGSLILAKTLDAGQVGLALSYALTLMGMFQWCVRQSAEVENMMISVERVIEYTDLEKEAPWEYQKRPPPAWPHEGVIIFDNVNFMYSPGGPLVLKHLTALIKSQEKVGIVGRTGAGKSSLISALFRLSEPEGKIWIDKILTTEIGLHDLRKKMSIIPQEPVLFTGTMRKNLDPFNEHTDEELWNALQEVQLKETIEDLPGKMDTELAESGSNFSVGQRQLVCLARAILRKNQILIIDEATANVDPRTDELIQKKIREKFAHCTVLTIAHRLNTIIDSDKIMVLDSGRLKEYDEPYVLLQNKESLFYKMVQQLGKAEAAALTETAKQVYFKRNYPHIGHTDHMVTNTSNGQPSTLTIFE",efflux of 6-thio-IMP,[5],significantly higher efflux

# Source: patent US20040091964A1, “Modified proteins, isolated novel peptides,and uses thereof” (priority 2003, published 2004)
